The nature of series [1]: in vitro. Conditions: human.
In series [2] the test system is NL4-3ΔEnv-NanoLuc/MERS-CoV pseudovirus. In words: microbe, parasite or virus in culture. To be noted: Middle East respiratory syndrome-related coronavirus. The series is classed as cell-based.
A short description of series [3]: in vitro. Conditions: human. This is another data set of the same source.
The test system of series [4] is SARS-CoV-2 spike (Wuhan-Hu-1) mediated cell-to-cell fusion, Jurkat donor / 293T/ACE2 acceptor cells. Briefly: microbe, parasite or virus in culture. To be noted: for IC50: Severe acute respiratory syndrome coronavirus 2, 4 h, read-out: IC50, cell-to-cell fusion inhibition. Type of series: cell-based.
For series [5], the system named is NL4-3ΔEnv-NanoLuc/SARS-CoV-2 (USA-WA1/2020) pseudovirus. Briefly: organism not typed. The series is classed as cell-based.
Series [6] in a line: in vitro. To be noted: human. This is another data set of the same source.
Series [7] is described as follows: in vitro. To be noted: human. This is another data set of the same source.
The nature of series [8]: in vitro. To be noted: human. This is another data set of the same source.
The test system of series [9] is NL4-3ΔEnvLuc/A-MLV pseudovirus. Briefly: microbe, parasite or virus in culture. The series is classed as cell-based, amphotropic murine leukemia virus (A-MLV). To be noted: 293T/ACE2, read-out: A-MLV IC50.
In series [10] the test system is NL4-3ΔEnv-NanoLuc/SARS-CoV-1 pseudovirus. Briefly: microbe, parasite or virus in culture. The series is classed as cell-based. To be noted: Severe acute respiratory syndrome coronavirus.
Series [11] is described as follows: in vitro. Conditions: human. The source holds these as a separate data set.
For series [12], the system named is SARS-CoV-1 Urbani. Briefly: microbe, parasite or virus in culture. The series is classed as cell-based. Conditions: Severe acute respiratory syndrome coronavirus, Calu-3, read-out: IC50, SARS-CoV-1 Urbani.
The test system of series [13] is MERS-CoV, EMC/2012. Briefly: microbe, parasite or virus in culture. Type of series: cell-based. Conditions: Middle East respiratory syndrome-related coronavirus, Calu-3, read-out: IC50, MERS-CoV.
[14] abbreviates: Caco-2, read-out: MERS-CoV IC50.
Where [15] appears, read: Calu-3, read-out: MERS-CoV IC50.
[16] abbreviates: Calu-3, read-out: SARS-CoV-2 USA-WA1/2020 IC50.
Where [17] appears, read: Pseudovirus, 293T/ACE2, read-out: IC50, range over both cell lines.
[18] abbreviates: 293T/ACE2, read-out: SARS-CoV-1 IC50.
[19] abbreviates: A549-ACE2, read-out: SARS-CoV-1 IC50.
Where [20] appears, read: Calu-3, read-out: SARS-CoV-1 IC50.

“Also recorded” adds a separate entry of the source. Read-outs that look alike come from different tables or passages of the source.

For `Cc1ccc2nc3s/c(=C/c4coc(-c5ccc(Cl)c(C(=O)O)c5)c4)c(=O)n3c2c1` [NBCoV35], the CC50 is > 50 µM in [1]; ~50 µM in series [3]; ~50 µM in series [6]; > 50 µM in series [7]; > 50 µM in series [8]. In addition, the IC50 in [2] (setting [14]) is 0.472 ± 0.043 µM; in [2] (setting [15]), 1.67 ± 0.225 µM; in series [2] (MRC5, read-out: MERS-CoV IC50), 0.715 ± 0.043 µM; in series [4], 2.8 µM; in series [5] (setting [16]), 0.36 ± 0.035 µM; in [5] (Pseudovirus, 293T/ACE2), 0.198 ± 0.009 µM. The IC50 in series [5] (setting [17]) is 0.066 to 0.198 µM; in series [5] (Pseudovirus, A549-ACE2), 0.126 ± 0.003 µM; in [9] it was 1.82 ± 0.025 µM; in series [10] (setting [18]), 0.38 ± 0.069 µM; in [10] (setting [19]) it was 0.363 ± 0.011 µM; in series [10] (setting [20]), 1.25 ± 0.045 µM. The “IC50, cell-to-cell fusion inhibition” value in series [4] (4 h) is “the least active”.

Take `O=C(O)c1cc(-c2ccc(/C=c3\sc4nc(=O)c5c6c(sc5n4c3=O)CCCC6)o2)ccc1Cl` [NBCoV36]: the CC50 was > 50 µM in series [1]; 43 ± 0.9 µM in [3]; > 50 µM in [6]; > 50 µM in [7]; > 50 µM in [8]. Moreover, the IC50 in [2] (setting [14]) came out at 0.428 ± 0.034 µM; in series [2] (setting [15]) it was 0.589 ± 0.117 µM; in series [2] (MRC5, read-out: MERS-CoV IC50), 0.837 ± 0.038 µM; in series [4], 0.9 µM; in series [5] (setting [16]) it was 0.433 ± 0.049 µM; in series [5] (Pseudovirus, 293T/ACE2) it was 0.33 ± 0.018 µM. Further, the IC50 in series [5] (Pseudovirus, A549-ACE2) worked out at 0.227 ± 0.018 µM; in series [9] it was 3.3 ± 0.1 µM; in series [10] (setting [18]) it was 0.66 ± 0.03 µM; in [10] (setting [19]), 0.147 ± 0.019 µM; in series [10] (setting [20]), 0.627 ± 0.058 µM.

As to `Cc1cc(C)c2nc3s/c(=C\c4ccc(-c5ccc(Cl)c(C(=O)O)c5)o4)c(=O)n3c2c1` [NBCoV37], the CC50 in series [1] was 48 ± 2 µM; in series [3], 42.5 ± 2 µM; in series [6] it was ~50 µM; in series [7], > 50 µM; in [8], > 50 µM. Moreover, the IC50 in series [2] (setting [14]) was 0.161 ± 0.053 µM; in series [2] (setting [15]) it was 0.877 ± 0.05 µM; in series [2] (MRC5, read-out: MERS-CoV IC50), 0.229 ± 0.02 µM; in series [2] (read-out: MERS-CoV IC50, range over both cell lines), 0.161 to 0.229 µM; in series [4], 1.4 µM; in series [5] (setting [16]), 0.368 ± 0.045 µM. Further, the IC50 in series [5] (Pseudovirus, 293T/ACE2) is 0.066 ± 0.002 µM; in series [5] (setting [17]), 0.066 to 0.198 µM; in series [5] (Pseudovirus, A549-ACE2), 0.145 ± 0.012 µM; in series [9] it was 1.51 ± 0.088 µM; in series [10] (setting [18]), 0.34 ± 0.034 µM; in series [10] (setting [19]) it was 0.095 ± 0.001 µM. The IC50 in series [10] (setting [20]) worked out at 1 ± 0.132 µM.

`O=C(O)c1cc(C(=O)O)cc(-c2ccc(C=c3sc4nc5ccccc5n4c3=O)o2)c1` [NBCoV62]: the CC50 in [3] and in series [6] was > 50 µM each time. For the same compound, the IC50 in series [5] (Pseudovirus, 293T/ACE2) was > 10 µM; in series [5] (Pseudovirus, A549-ACE2) it was > 10 µM.

As for `Cc1cc2nc3s/c(=C\c4ccc(-c5ccc6c(c5)COC6=O)o4)c(=O)n3c2cc1C` [NBCoV65], the CC50 in series [3] and in series [6] was > 50 µM throughout. For the same compound, the IC50 in series [5] (Pseudovirus, 293T/ACE2) was > 10 µM; in series [5] (Pseudovirus, A549-ACE2), > 10 µM.

In the case of `O=c1/c(=C/c2ccc(-c3ccccc3)o2)sc2nc3ccccc3n12` [NBCoV66], the CC50 in series [3] and in series [6] was > 50 µM throughout. Moreover, in series [5], the “antiviral activity (in words)” value is reported as “no antiviral activity; also recorded: Inactive”. Besides, the IC50 in series [5] (Pseudovirus, 293T/ACE2) was > 10 µM; in series [5] (Pseudovirus, A549-ACE2), > 10 µM.

Regarding `Cc1ccc2c(nc3s/c(=C\c4ccc(-c5ccccc5C(=O)O)o4)c(=O)n32)c1C` [NBCoV68], the CC50 in [3] and in series [6] was > 50 µM in each case. Also, the IC50 was 3.9 ± 0.1 µM in [5] (Pseudovirus, 293T/ACE2) and 2.3 ± 0.07 µM in series [5] (Pseudovirus, A549-ACE2).

With `Cc1ccc2c(nc3s/c(=C/c4ccc(-c5ccc(C(=O)O)cc5)o4)c(=O)n32)c1C` [NBCoV69], the CC50 in series [3] and in series [6] was > 50 µM in each case. Also, the IC50 in series [5] (Pseudovirus, 293T/ACE2) was found to be 2.55 ± 0.105 µM; in series [5] (Pseudovirus, A549-ACE2), 3 ± 0.4 µM.

With `Cc1cc(C(=O)O)ccc1-c1ccc(/C=c2\sc3nc4ccccc4n3c2=O)o1` [NBCoV70], the CC50 in series [3] and in series [6] was > 50 µM throughout. The IC50 in series [5] (Pseudovirus, 293T/ACE2) was 9.5 ± 1 µM; in [5] (Pseudovirus, A549-ACE2) it was > 10 µM.

In the case of `O=c1/c(=C\c2ccc(-c3cccc(Cl)c3)o2)sc2nc3ccccc3n12` [NBCoV71], the IC50 in series [5] (Pseudovirus, 293T/ACE2) was > 10 µM; in [5] (Pseudovirus, A549-ACE2), > 10 µM.

Regarding `COc1cc(/C=c2/sc3nc4ccccc4n3c2=O)cc(I)c1OCC(=O)O` [NBCoV72], the CC50 in [3] and in [6] was > 50 µM throughout. Besides, the IC50 in series [5] (Pseudovirus, 293T/ACE2) is > 10 µM; in series [5] (Pseudovirus, A549-ACE2), > 10 µM.

`O=C(O)c1ccc(-c2ccc(/C=c3/sc4nc5ccccc5n4c3=O)o2)cc1` [NBCoV73]: the CC50 in series [3] and in series [6] was > 50 µM in each case. For the same compound, the IC50 in series [5] (Pseudovirus, 293T/ACE2) is > 10 µM; in series [5] (Pseudovirus, A549-ACE2), > 10 µM.

For `O=C(O)c1ccc(Cl)c(-c2ccc(/C=c3/sc4nc5ccccc5n4c3=O)o2)c1` [NBCoV74], the CC50 in [3] and in series [6] was > 50 µM throughout. In addition, the IC50 is > 10 µM in series [5] (Pseudovirus, 293T/ACE2) and > 10 µM in [5] (Pseudovirus, A549-ACE2).

On to `O=C(O)c1ccc(-c2ccc(/C=c3/sc4nc5ccccc5n4c3=O)o2)cc1Cl` [NBCoV75], for which the CC50 in [3] and in [6] was > 50 µM each time. Also, the IC50 in series [5] (Pseudovirus, 293T/ACE2) was 5.2 ± 0.6 µM; in series [5] (Pseudovirus, A549-ACE2) it was 3.3 ± 0.7 µM.

Take `O=C(O)c1cc(C(=O)O)cc(-c2ccc(/C=c3/sc4nc5ccccc5n4c3=O)o2)c1` [NBCoV76]: the CC50 in [3] and in series [6] was > 50 µM throughout. The IC50 was > 10 µM in [5] (Pseudovirus, 293T/ACE2) and > 10 µM in [5] (Pseudovirus, A549-ACE2).

With `COc1cc(/C=c2/sc3nc4ccccc4n3c2=O)ccc1OCc1cccc(C(=O)O)c1` [NBCoV77], the CC50 in series [3] and in series [6] was > 50 µM in each case. The IC50 in series [5] (Pseudovirus, 293T/ACE2) was > 10 µM; in [5] (Pseudovirus, A549-ACE2), > 10 µM.

As to `Cc1cc2nc3s/c(=C/c4ccc(-c5ccc(Cl)cc5)o4)c(=O)n3c2cc1C` [NBCoV78], the CC50 in series [3] and in [6] was > 50 µM in each case. The IC50 in [5] (Pseudovirus, 293T/ACE2) is > 10 µM; in series [5] (Pseudovirus, A549-ACE2), 8.1 ± 0.2 µM.

Regarding `Cc1ccc(-c2ccc(/C=c3/sc4nc5ccccc5n4c3=O)o2)cc1Cl` [NBCoV79], the CC50 in series [3] and in [6] was > 50 µM throughout. In addition, the IC50 in series [5] (Pseudovirus, 293T/ACE2) is > 10 µM; in series [5] (Pseudovirus, A549-ACE2), > 10 µM.

In the case of `COc1cc(/C=c2/sc3nc4ccccc4n3c2=O)ccc1OCc1nnn[nH]1` [NBCoV80], the CC50 in [3] and in series [6] was > 50 µM each time. The IC50 in [5] (Pseudovirus, 293T/ACE2) was > 10 µM; in series [5] (Pseudovirus, A549-ACE2), > 10 µM.

With `Cc1cc2nc3s/c(=C/c4ccc(-c5ccccc5C(=O)O)o4)c(=O)n3c2cc1C` [NBCoV81], the CC50 in series [3] and in series [6] was > 50 µM throughout. Moreover, the IC50 in series [5] (Pseudovirus, 293T/ACE2) amounted to 0.387 ± 0.064 µM; in series [5] (Pseudovirus, A549-ACE2) it was 0.459 ± 0.023 µM.

For `Cc1cc2nc3s/c(=C\c4ccc(-c5ccc(OC(F)(F)F)cc5)o4)c(=O)n3c2cc1C` [NBCoV82], the CC50 in series [3] and in series [6] was > 50 µM throughout. Besides, the IC50 was > 10 µM in series [5] (Pseudovirus, 293T/ACE2) and > 10 µM in series [5] (Pseudovirus, A549-ACE2).

Consider `CCC(CC)COC(=O)[C@H](C)N[P@](=O)(OC[C@H]1O[C@@](C#N)(c2ccc3c(N)ncnn23)[C@H](O)[C@@H]1O)Oc1ccccc1` [Remdesivir, reference compound], for which the CC50 in [11] was > 50 µM. Besides, the IC50 in series [12] came out at 1.08 µM; in series [13] it was 17.8 µM.

The values are drawn from paper PMC10141620 (Viruses, 2023).
